Holding throughout (assay): NCI tumour cell line growth inhibition, 48 h
In assay [1] the test system is A549.
The subject of assay [2] is ACHN.
The subject of assay [3] is CAKI-1.
The test system of assay [4] is COLO 205.
The test system of assay [5] is HCT-116.
Assay [6] deals with HCT-15.
The subject of assay [7] is Hs-578T.
The test system of assay [8] is IGROV-1.
Assay [9] concerns MDA-N.
Assay [10] relates to NCI-H460.
Assay [11] concerns NCI-H522.
Assay [12] concerns NCI/ADR-RES.
Assay [13] has as its system OVCAR-3.
The test system of assay [14] is OVCAR-5.
The subject of assay [15] is OVCAR-8.
Assay [16] concerns PC-3.
Assay [17] relates to RXF 393.
Assay [18] relates to SF-539.
Assay [19] deals with SK-MEL-2.
The subject of assay [20] is T47D.

Each structure is given as a SMILES string.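 In this assay, cells in 96-well plates receive the compound at five concentrations for 48 hours. Endpoints are linearly interpolated between the surrounding concentrations. Abbreviation: GI50, concentration required for 50% inhibition of growth.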 Active and inactive are the calls of the source. Cut-off read from the data, not from the text of the source: active = GI50 up to about 1.1 µM and inactive = higher. Some results are limits rather than exact numbers.

Regarding `CSC1=NN(C(C)=O)C(C(OC(C)=O)C(OC(C)=O)C(OC(C)=O)C(COC(C)=O)OC(C)=O)S1` (stereo not given), the GI50 is > 100 µM (inactive) in [1]; > 100 µM (inactive) in assay [2]; > 100 µM (inactive) in assay [3]; > 100 µM (inactive) in [4]; > 100 µM (inactive) in [5]; > 100 µM in [6]. Moreover, the GI50 in assay [7], in [8], in assay [9], in assay [10], in assay [11] and in assay [12] was > 100 µM (inactive) throughout. Further, the GI50 in [13], in assay [14], in assay [15], in assay [16], in assay [17] and in assay [18] was > 100 µM (inactive) throughout. Further, the GI50 in [19] and in [20] was > 100 µM (inactive) in each case.

As for `O=C(/C=C/c1ccccc1O)CC(=O)/C=C/c1ccccc1O`, the GI50 in assay [1] is 7.14 µM (inactive); in [2], 5.92 µM (inactive); in [3], 17.9 µM (inactive); in [4] it was 3.95 µM (inactive); in assay [5] it was 2.38 µM (inactive); in assay [6], 3.64 µM. The GI50 in assay [7] was 8.17 µM (inactive); in assay [8], 5.73 µM (inactive); in [9], 2.97 µM (inactive); in assay [10], 7.45 µM (inactive); in assay [11], 3.72 µM (inactive); in [12] it was 5.01 µM (inactive). The GI50 was 3.82 µM (inactive) in [13]; > 10 µM (inactive) in assay [14]; 4.41 µM (inactive) in [15]; 5.28 µM (inactive) in [16]; 3.25 µM (inactive) in [17]; 5.9 µM (inactive) in assay [18]. The GI50 was 8.79 µM (inactive) in assay [19] and 5.45 µM (inactive) in [20].

As for `COc1ccc2c(c1)[n+]([O-])c(C#N)c(N1CCN(c3ccc([N+](=O)[O-])cc3)CC1)[n+]2[O-]`, the GI50 in assay [1] is 3.08 µM (inactive); in assay [2], 2.7 µM (inactive); in assay [3] it was 6 µM (inactive); in assay [4], 2.24 µM (inactive); in assay [5], 3.66 µM (inactive); in assay [6], 3.16 µM. Moreover, the GI50 in assay [7] is 2.55 µM (inactive); in assay [8], 1.49 µM (inactive); in [9], 7.35 µM (inactive); in assay [10] it was 3.63 µM (inactive); in assay [11], 1.81 µM (inactive); in [12] it was 2.45 µM (inactive). Also, the GI50 in assay [13] was 9.91 µM (inactive); in assay [14], 7.1 µM (inactive); in assay [15], 2.09 µM (inactive); in [16], 3.34 µM (inactive); in assay [17], 6.89 µM (inactive); in [18], 2.21 µM (inactive). Further, the GI50 is > 57.4 µM (inactive) in [19] and 2.01 µM (inactive) in assay [20].

For `COc1cc(/N=C(\N)N=C(N)N)c2ncccc2c1`, the GI50 in assay [1] was > 100 µM (inactive); in assay [2], > 100 µM (inactive); in [3], > 100 µM (inactive); in assay [4], 74.8 µM (inactive); in assay [5], > 100 µM (inactive); in assay [6], > 100 µM. In addition, the GI50 in assay [7] is 98.4 µM (inactive); in [8], > 100 µM (inactive); in [9], > 100 µM (inactive); in assay [10] it was > 100 µM (inactive); in assay [11], 72.8 µM (inactive); in [12], > 100 µM (inactive). For the same compound, the GI50 is > 100 µM (inactive) in [13]; > 100 µM (inactive) in assay [14]; > 100 µM (inactive) in [15]; > 100 µM (inactive) in [16]; > 100 µM (inactive) in assay [17]; 46.8 µM (inactive) in [18]. The GI50 in assay [19] is > 100 µM (inactive); in [20], 29.9 µM (inactive).

Regarding `CCOC(=O)c1c(N2CCCC2)ncn(Cc2ccccc2)c1=S`, the GI50 is > 100 µM (inactive) in [1]; 95.1 µM (inactive) in assay [2]; 30.6 µM (inactive) in [3]; > 100 µM (inactive) in [4]; > 100 µM (inactive) in [5]; > 100 µM in assay [6]. For the same compound, the GI50 in assay [7], in [8], in [9], in [10], in assay [11] and in assay [12] was > 100 µM (inactive) throughout. The GI50 is > 100 µM (inactive) in assay [13]; > 100 µM (inactive) in assay [14]; > 100 µM (inactive) in assay [15]; 90.4 µM (inactive) in [16]; > 100 µM (inactive) in assay [17]; > 100 µM (inactive) in assay [18]. Besides, the GI50 is > 100 µM (inactive) in [19] and 93.8 µM (inactive) in assay [20].

With `C[C@H](CCc1nc(C#N)c(N)o1)[C@H]1CC[C@H]2[C@@H]3CCC4C[C@@H](O)CC[C@]4(C)[C@H]3C[C@@H](O)[C@]12C` (stereo not given in full), the GI50 in assay [1] is 5.89 µM (inactive); in [2], 14.9 µM (inactive); in assay [3], 14.4 µM (inactive); in [4], 12.7 µM (inactive); in assay [5], 12.7 µM (inactive); in assay [6] it was 14.7 µM. Also, the GI50 in assay [7] was 8.55 µM (inactive); in [8] it was 6.24 µM (inactive); in [9] it was 13.9 µM (inactive); in assay [10] it was 14.6 µM (inactive); in assay [11] it was 3.65 µM (inactive); in [12] it was 8.49 µM (inactive). Besides, the GI50 is 11.9 µM (inactive) in assay [13]; 18.6 µM (inactive) in assay [14]; 4.56 µM (inactive) in assay [15]; 4.33 µM (inactive) in assay [16]; 9.27 µM (inactive) in [17]; 10.2 µM (inactive) in [18]. The GI50 in [19] is 16.3 µM (inactive); in assay [20], 14.5 µM (inactive).

With `O=C(c1c(F)c(F)c(F)c(F)c1F)n1c(O)nc2ccccc21`, the GI50 is 16.7 µM (inactive) in assay [1]; 16.1 µM (inactive) in [2]; 5.82 µM (inactive) in [3]; 12.9 µM (inactive) in [4]; 3.49 µM (inactive) in [5]; 5.06 µM in [6]. The GI50 in assay [7] was 17.2 µM (inactive); in [8] it was 11.4 µM (inactive); in assay [9] it was 7.33 µM (inactive); in assay [10], 12.8 µM (inactive); in assay [11], 5.9 µM (inactive); in assay [12] it was 22 µM (inactive). Further, the GI50 in assay [13] was 9.77 µM (inactive); in [14], 15.7 µM (inactive); in assay [15], 13.2 µM (inactive); in assay [16], 7.93 µM (inactive); in [17], 8.59 µM (inactive); in assay [18], 13.6 µM (inactive). Further, the GI50 is 4.2 µM (inactive) in assay [19] and 3.94 µM (inactive) in assay [20].

With `NNC1=N/C(=C\c2ccccc2O)C(=O)N1`, the GI50 in assay [1] is 30.9 µM (inactive); in assay [2], 30.9 µM (inactive); in assay [3], 60.3 µM (inactive); in assay [4], 29.6 µM (inactive); in assay [5], 34.4 µM (inactive); in assay [6] it was 6.31 µM. For the same compound, the GI50 is > 100 µM (inactive) in assay [7]; 36.2 µM (inactive) in [8]; 42.2 µM (inactive) in assay [9]; 20.2 µM (inactive) in assay [10]; 35.3 µM (inactive) in [11]; 35.8 µM (inactive) in [12]. Moreover, the GI50 in assay [13] is 35.1 µM (inactive); in [14], 65.3 µM (inactive); in [15], 27.6 µM (inactive); in assay [16], 49.2 µM (inactive); in assay [17], 49.3 µM (inactive); in assay [18] it was 25.4 µM (inactive). In addition, the GI50 was 63.8 µM (inactive) in assay [19] and 38.5 µM (inactive) in assay [20].

Turning to `CC(=O)Oc1cccc2c1C(=O)c1c(OC(C)=O)cc(C)cc1C2=O`, the GI50 in assay [1] was 47.5 µM (inactive); in assay [2], 78.3 µM (inactive); in [3], > 100 µM (inactive); in [4], 58.2 µM (inactive); in [5] it was 33.6 µM (inactive); in [6], 40.6 µM. The GI50 was 46.6 µM (inactive) in [7]; 25.7 µM (inactive) in assay [8]; 58.5 µM (inactive) in assay [9]; 26.1 µM (inactive) in [10]; 12.2 µM (inactive) in [11]; 21.1 µM (inactive) in assay [12]. The GI50 in assay [13] is 16.4 µM (inactive); in assay [14], > 100 µM (inactive); in assay [15] it was 39.8 µM (inactive); in [16], 26.1 µM (inactive); in assay [17], 28.2 µM (inactive); in [18] it was 26.3 µM (inactive). The GI50 in [19] is 29 µM (inactive); in assay [20], 32.4 µM (inactive).

Consider `C[C@@H]1C[C@H]2CC[C@H](O2)[C@H](C)C(=O)O[C@@H](C)C[C@@H]2CC[C@@H](O2)[C@@H](C)C(=O)O[C@H](C)C[C@H]2CC[C@H](O2)[C@H](C)C(=O)O[C@@H](C)C[C@@H]2CC[C@@H](O2)[C@@H](C)C(=O)O1`, for which the GI50 was 0.344 µM (active) in assay [1]; 0.212 µM (active) in assay [2]; 0.826 µM (active) in assay [3]; 0.155 µM (active) in [4]; 0.315 µM (active) in [5]; 0.646 µM in assay [6]. Besides, the GI50 was 0.489 µM (active) in [7]; 0.34 µM (active) in assay [8]; 0.404 µM (active) in assay [9]; 0.426 µM (active) in [10]; 0.211 µM (active) in assay [11]; 2.17 µM (inactive) in assay [12]. For the same compound, the GI50 was 0.073 µM (active) in assay [13]; 0.568 µM (active) in assay [14]; 0.295 µM (active) in assay [15]; 0.218 µM (active) in [16]; 0.356 µM (active) in assay [17]; 1.58 µM (inactive) in assay [18]. The GI50 in assay [19] was 0.245 µM (active); in assay [20], 0.189 µM (active).

Source of the values: ChEMBL document CHEMBL1201862, “PubChem BioAssay data set” (2004).
